The source of these data is publication PMC10066226, “An ultra-high-throughput screen for the evaluation of peptide HLA-Binder interactions” (Scientific Reports, 2023).

The first test addresses model TCER IMAHiAff#1. The experiment in a line: BLI measurements (Octet RED384) of peptide-loaded disulfide-stabilized pHLA. Type of test: binding.
Details: not given
From the text: In order to confirm our results obtained from the ultra high throughput highSCORE measurements, we compared the KD values with the corresponding ones from BLI measurements (Fig. 4). The direct correlation between the two methods can be described as a hockey stick. Many peptides with single amino acid mutations show similar KD values as the WT peptide. This is especially the case for KD values obtained from the highSCORE measurements. Within the BLI data set, most of the library peptides show a higher KD value compared to the corresponding WT peptide (Fig. 4a). This relation results in a flat region within the correlation plot. All other peptide, with the exception of the ones highlighted with an arrow, show a good linear correlation between both data sets. It is important to note that while the spectroscopic principle behind BLI and highSCORE is similar, the experimental procedure is different. Using BLI, the pHLA complexes are bound to a sensor tip, which is dipped into a microtiter plate well containing the analyte. Thereafter, the sensor tip is wiggled within the well to ensure that the analyte is not depleted on the surface. In contrast, during a highSCORE measurement, the analyte is flushed over the microarray using a thin flow chamber. This makes the experimental procedure of a highSCORE measurement more similar to that of an SPR device. Consequently, differences in the KD values between BLI and highSCORE measurements are to be expected and might explain the shift in the overall distribution of the KD values (Fig. 4b). […] Since both measurement methods have their own advantages and disadvantages, it is difficult to tell which of the two methods provides the values that are closest to reality.
BLI measurements were performed on an Octet RED384 system using anti-Penta-His biosensors. In short, disulfide-stabilized molecules were refolded and peptide-loaded as previously described. All analytes or ligands were diluted to their final concentration in kinetics buffer (PBS, 0.1% BSA, 0.05% Tween-20) if not specified otherwise. All biosensors were hydrated for at least 10 minutes in kinetics buffer before use. Loadings and measurements were performed in 384 tilted well plates (Pall Fortébio) with at least 40 μ l at a 3 mm sensor offset. Plate temperature was set at 30 ^∘ C and shaker speed at 1000 rpm. To generate a baseline, sensors were dipped in kinetics buffer for 60 s before being loaded with 10 ug/ml of peptide loaded disulfide-stabilized pHLA for 120 s. Afterwards, a second 120 s baseline was recorded before a 60 s association and a 240 s dissociation phase. After individual measurements, sensors were regenerated using 10 mM Glycine pH 1.5 4 times for 5s each before another cycle was performed. 4 TCER concentrations (500nM, 158.1nM, 50nM and 15.8nM) were measured for each pHLA complex. A sensor loaded with an irrelevant pHLA was measured in line for reference sensor subtraction. All sensorgrams were analyzed using the OctetRED software “Data Analysis HT” version 11.0.0.50 (Pall Fortébio). Raw sensor data was aligned at the Y axis by aligning the data to the end of the baseline step, and inter-step correction was used to align the start of the dissociation to the end of the association phase. Savitzky-Golay filtering was applied. Resulting sensorgrams were then fitted using a 1:1 Langmuir kinetics binding model. In case of lower affinity binding events, the lower two concentrations were excluded from the fitting.
(BLI is a label-free optical method that tracks binding on a fibre tip over time.)
Turning to SLLQHLDGL [D7], the BLI_KD result is recorded as “no fit”. The same measure, in the same setting: in the case of SLLQHLEGL [E7] it was “no fit”; in that of SLLQHLIFL [F8], “no fit”. Same read-out and setting: the entry for SLLQHLIWL [W8] is “no fit”.

Staying with this test, now noted: std in a column of its own.
As for SLLQHLWGL [W7], the BLI_KD entry is given as “no fit”.

For SLLQHPIGL [P6], the BLI_KD entry was “no fit”.
